# Measurements: US20240408066A1, “Treatment Of Conditions Associated With Stress Granule Formation” (priority 2022, published 2024)
# Experiments:
# [1] = biological target: T1, recombinant mouse TIA1-ECFP+TIA1-EYFP (Mus musculus, UniProt P52912); assay: In vitro FRET assay of TIA1 multimerization; format: binding; conditions: TIA1-ECFP+TIA1-EYFP 10 ug/ml each; test compound 0-40 μM; FIG. 4
# T1 construct: Full-length mouse TIA1 cDNA was generated from standard RT-PCR from total mouse brain RNA; 6xHis (N); made in house; host or cells: E. coli BL21 AI
# T1 sequence (P52912 1-386) 1: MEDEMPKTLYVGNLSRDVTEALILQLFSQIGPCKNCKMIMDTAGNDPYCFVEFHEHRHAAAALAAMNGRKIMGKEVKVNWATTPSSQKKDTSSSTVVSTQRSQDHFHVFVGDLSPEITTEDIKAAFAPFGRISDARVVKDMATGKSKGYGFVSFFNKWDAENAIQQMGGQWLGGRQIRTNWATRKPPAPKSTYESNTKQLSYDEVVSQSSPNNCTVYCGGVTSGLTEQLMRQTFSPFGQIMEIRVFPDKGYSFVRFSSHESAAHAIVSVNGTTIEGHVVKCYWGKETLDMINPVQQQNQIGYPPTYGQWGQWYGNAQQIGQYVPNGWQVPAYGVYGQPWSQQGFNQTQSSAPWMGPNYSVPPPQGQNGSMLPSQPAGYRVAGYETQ
# T1 sequence (P52912 1-386) 2: T1 sequence (P52912 1-386) 1
# From the text: The assay that takes advantage of a phenomenon involving the transfer of energy between two compatible fluorescent proteins. In particular, the fluorescent proteins CFP and YFP (cyan fluorescent protein and yellow fluorescent protein, respectively) emit fluorescent light of characteristic wavelengths when excited by laser radiation. CFP or YFP was tethered to a TIA1 protein and the hybrid proteins were mixed together. Subsequently, if TIA1 self-interacts (dimerizes), the tethered CFP and YFP proteins are brought into close proximity to one another. When this occurs, laser excitation of CFP leads to a release of energy that is absorbed by YFP, which can be detected in the assay. This assay can be employed in the presence of other agents, such as small molecule compounds, to determine whether their presence has any effect on dimerization of TIA1. This screen was employed to assay compounds in a chemical library in order to identify compounds that effect TIA1 binding and dimerization or multimerization.
# One way to establish that test compounds bind recombinant TIA1 is to perform a Förster resonance energy transfer (FRET) experiment. Binding of test compound to monomeric protein is inferred by a change in FRET signal upon ligand-induced multimerization of suitably tagged (c.g.,-ECFP and -EYFP) fusion proteins. In other words, not only must the compound bind to TIA1-ECFP and TIA1-EYFP, it must also induce a change in multimeric state such that energy can be transferred between the ECFP and EYFP tags. […]
# Plasmids encoding mouse TIA1-ECFP and TIA1-EYFP were generated by standard PCR-based cloning techniques. […] Samples are read in real-time with a fluorescence microplate reader. To measure donor FRET, samples are excited at 430+30 nm, and […] is measured at 480+20 nm. Compounds that drive multimerization of the fusion proteins cause proximal localization of the ECFP and EYFP moieties, leading to a reduction in ECFP fluorescence with ECFP excitation due to energy transfer to EYFP. […]
# [2] = biological target: T2, recombinant mouse TIA1 with human recombinant tau (0N4R isoform) (Mus musculus, UniProt P52912); assay: TIA1-induced oligomerization of tau protein in vitro (oTau immunoblotting); format: biochemical; conditions: fixed ratio of TIA1:tau; as a function of drug concentration and time (0.5-2 h); FIG. 5 right panels
# T2 sequence (P52912 1-386): T1 sequence (P52912 1-386) 1
# Method: Oligomeric tau is the most pathological configuration of the protein.
# Purified full-length recombinant mouse TIA1 protein was generated from standard cloning methods followed by standard protocols for bacterial expression and purification. Recombinant TIA1 was incubated with commercially available human recombinant tau (ON4R isoform) obtained from R&D Systems at the indicated molar ratios/concentrations. After indicated incubation times, reactions were spotted onto nitrocellulose membrane followed by immunoblotting with primary antibodies that recognize oligomeric tau (oTau) or TIA1. Fluorescently labeled secondary antibody staining against indicated primary antibodies was followed by quantitative image analysis using a Li-COR Odyssey system. Experiment A evaluates the impact of TIA1:tau molar ratio on tau oligomerization and whether OTX0049 at a single test concentration interferes with TIA1-dependent tau oligomerization (FIG. 5, left panels). The experiment represented in the right panels measure the dose-response of OTX0049 and OTX1017 (Formula I in claims) inhibition of TIA1-dependent tau oligomerization at a fixed ratio of recombinant TIA1:tau (FIG. 5, right panels).
# rTg4510 transgenic mice = assay: Cellular pathology in rTg4510 mouse model (GFAP and NeuN immunohistochemistry); format: in vivo; conditions: 5 mg/kg i.p. once per week for 7 weeks beginning at 77 d; FIG. 7
# Method: rTg4510 transgenic mice are a well-established model of tauopathy based on expression of a human tau mutant (P301L). […] Given that these cellular pathological events are driven by tau, TIA1 antagonists compounds should limit tau-dependent pathology.
# rTg4510 transgenic mice were treated with DMSO vehicle or OTX1017 (Formula I in claims 5 mg/kg i.p.) once per week for 7 weeks beginning at 77 d. Hippocampal slices were then prepared for conventional immunohistochemistry with GFAP (neuroinflammation marker) and NeuN (neuronal marker), followed by quantitation using NIH ImageJ. GFAP signal was quantitated in cortex (ctx) (white arrows). NeuN staining was used to calculate average thickness of the CA1 pyramidal cell layer for each slice.
# PS19 transgenic mice = assay: Tau oligomerization in vivo in PS19 mice (hippocampal dot blots, oligomeric tau-specific antibody); design: species or system mouse; conditions: 10 mg/kg i.p. once per week for 6 weeks; FIG. 10
# Method: FIG. 10 illustrates the inhibition of tau oligomerization in vivo by OTX1017. Mice were treated with 10 mg/kg OTX1017 i.p., once per week, for 6 weeks, hippocampal extracts were prepared, and dot blots were performed with an oligomeric tau-specific antibody.
SMILES,multimerization of TIA1 (FRET signal) [1],"TIA1-dependent tau oligomerization, dose-response [2]",GFAP staining in the cortex (neuroinflammation) (rTg4510 transgenic mice),thickness of the CA1 pyramidal layer neurons (NeuN staining) (rTg4510 transgenic mice),oligomeric tau in the hippocampus (PS19 transgenic mice)
CCOC(=O)c1ccc(-n2sc3ccccc3c2=O)cc1 [Formula III],demonstrate FRET signals indicative of TIA1 multimerization,–,–,–,–
Cc1ccc(C)c(-n2[se]c3cc(F)ccc3c2=O)c1 [OTX1017],Induce Multimerization of Recombinant Mouse TIA1,drug-dependent reduction of TIA1-dependent tau oligomerization,ameliorated,ameliorated by drug treatment,significantly reduces the presence of oligomeric tau in the hippocampus
Cc1ccc(C)c(-n2[se]c3cncnc3c2=O)c1 [OTX1018],Induce Multimerization of Recombinant Mouse TIA1,–,–,–,–
